Data as given in US10874743B2, “IRAK degraders and uses thereof” (Kymera Therapeutics, Inc., priority 2017, dated 2020).
Several values for one entry are separate records, joined by “and”; a condition that tells them apart may be missing. Identical values can stand only once. Like-named read-outs stand apart in the source and are kept apart here.

Test: Pharmacokinetics in Sprague Dawley rats (plasma and brain concentrations, PK parameters)
Assay type: in vivo
Conditions: for Concentration Rat 4 / Concentration Rat 5 / Concentration Rat 6: po 10 mg/kg
Procedure: Pharmacokinetics for I-127, I-172 and I-210 were determined in Sprague Dawley rats or CD-1 mice by dosing intravenous (IV), subcutaneous (SC) or per oral (PO) using facility SOPs and sampling plasma at required time points. Species, formulation, route of administration and time points samples are listed below for each compound.
Compounds were extracted from plasma, injected on reverse phase HPLC, eluted with a gradient from 5% to 95% acetonitrile in water and quantified by mass spectrometry with internal standard. Data are expressed in ng compound per mL of plasma.

[1] = Rat (Sprague Dawley) po 10 mg/kg, Mean
[2] = Rat (Sprague Dawley) po 10 mg/kg, individual Rat 4-6, 10 mg/kg
[3] = Sprague Dawley rat, iv 3 mg/kg, Rat 1
[4] = Sprague Dawley rat, iv 3 mg/kg, Rat 2
[5] = Sprague Dawley rat, iv 3 mg/kg, Rat 3
[6] = Sprague Dawley rat, iv 3 mg/kg, mean of 3 rats
[7] = Sprague Dawley rat, plasma, 0 h
[8] = Sprague Dawley rat, plasma, 24 h

- brain Detected Conc. (Rat (Sprague Dawley) iv 3 mg/kg (IVB), brain homogenate 1:2 in PBS, 0.083 h, Group 1, Group 2, 3 mg/kg): 11.8 ng/mL
- brain Detected Conc. (Rat (Sprague Dawley) iv 3 mg/kg (IVB), brain homogenate 1:2 in PBS, 0.25 h, Group 1, Group 2, 3 mg/kg): 12.9 ng/mL
- brain Detected Conc. (Rat (Sprague Dawley) iv 3 mg/kg (IVB), brain homogenate 1:2 in PBS, 1 h, Group 1, Group 2, 3 mg/kg): 17.5 ng/mL
- brain Detected Conc. (Rat (Sprague Dawley) iv 3 mg/kg (IVB), brain homogenate 1:2 in PBS, 4 h, Group 1, Group 2, 3 mg/kg): 12.4 ng/mL
- brain Actual Conc. (Rat (Sprague Dawley) iv 3 mg/kg (IVB), brain, 0.083 h, Group 1, Group 2, detected value multiplied by 3, 3 mg/kg): 35.4 ng/g
- brain Actual Conc. (Rat (Sprague Dawley) iv 3 mg/kg (IVB), brain, 0.25 h, Group 1, Group 2, detected value multiplied by 3, 3 mg/kg): 38.7 ng/g
- brain Actual Conc. (Rat (Sprague Dawley) iv 3 mg/kg (IVB), brain, 1 h, Group 1, Group 2, detected value multiplied by 3, 3 mg/kg): 52.5 ng/g
- brain Actual Conc. (Rat (Sprague Dawley) iv 3 mg/kg (IVB), brain, 4 h, Group 1, Group 2, detected value multiplied by 3, 3 mg/kg): 37.2 ng/g
- AUC_%Extrap_obs [1]: 42.3%
- AUClast/D [1]: 1.52 kg·ng·h/mL/mg
- F [1]: 0.385%
- AUC_%Extrap_obs [2]: 33.5% and 48.7% and 44.8%
- Cmax [2]: 3.50 ng/mL and 4.02 ng/mL and 1.20 ng/mL
- F [2]: 0.450% and 0.536% and 0.169%
- MRTInf_obs [2]: 10.2 h and 9.35 h
- T1/2 [2]: 5.65 h and 5.28 h
- AUC_%Extrap_obs Rat 1 [3]: 0.140%
- AUClast/D Rat 1 [3]: 414 kg·ng·h/mL/mg
- Cl_obs Rat 1 [3]: 40.2 mL/min/kg
- Vss_obs Rat 1 [3]: 7.85 L/kg
- AUC_%Extrap_obs Rat 2 [4]: 0.183%
- AUClast/D Rat 2 [4]: 403 kg·ng·h/mL/mg
- Cl_obs Rat 2 [4]: 41.2 mL/min/kg
- Vss_obs Rat 2 [4]: 7.79 L/kg
- AUC_%Extrap_obs Rat 3 [5]: 0.185%
- AUClast/D Rat 3 [5]: 364 kg·ng·h/mL/mg
- Cl_obs Rat 3 [5]: 45.7 mL/min/kg
- Vss_obs Rat 3 [5]: 8.00 L/kg
- AUC_%Extrap_obs Mean [6]: 0.169%
- AUClast/D Mean [6]: 394 kg·ng·h/mL/mg
- Cl obs Mean [6]: 42 mL/min/kg
- Vss_obs Mean [6]: 7.88 L/kg
- Concentration Rat 1 (Sprague Dawley rat, iv 3 mg/kg, plasma, 0 h, Rat 1): BLOQ
- Concentration Rat 2 (Sprague Dawley rat, iv 3 mg/kg, plasma, 0 h, Rat 2): BLOQ
- Concentration Rat 3 (Sprague Dawley rat, iv 3 mg/kg, plasma, 0 h, Rat 3): BLOQ
- Concentration Rat 4 [7]: BLOQ
- Concentration Rat 5 [7]: BLOQ
- Concentration Rat 6 [7]: BLOQ
- Concentration Rat 4 [8]: BLOQ
- Concentration Rat 5 [8]: BLOQ
- Concentration Rat 6 [8]: BLOQ
- concentration at 0.083 h (Sprague Dawley, rat, brain homogenate, iv, 3 mg/kg, Rat (Sprague Dawley) iv 3 mg/kg (IVB), brain homogenate 1:2 in PBS, 0.083 h, Group 1, Group 2, read-out: brain Detected Conc.): 17.2 ng/mL
- concentration at 0.25 h (Sprague Dawley, rat, brain homogenate, iv, 3 mg/kg, Rat (Sprague Dawley) iv 3 mg/kg (IVB), brain homogenate 1:2 in PBS, 0.25 h, Group 1, Group 2, read-out: brain Detected Conc.): 13.2 ng/mL
- concentration at 1 h (Sprague Dawley, rat, brain homogenate, iv, 3 mg/kg, Rat (Sprague Dawley) iv 3 mg/kg (IVB), brain homogenate 1:2 in PBS, 1 h, Group 1, Group 2, read-out: brain Detected Conc.): 13.3 ng/mL
- concentration at 4 h (Sprague Dawley, rat, brain homogenate, iv, 3 mg/kg, Rat (Sprague Dawley) iv 3 mg/kg (IVB), brain homogenate 1:2 in PBS, 4 h, Group 1, Group 2, read-out: brain Detected Conc.): 14.2 ng/mL
- concentration at 0.083 h (Sprague Dawley, rat, brain, iv, 3 mg/kg, Rat (Sprague Dawley) iv 3 mg/kg (IVB), brain, 0.083 h, Group 1, Group 2, detected value multiplied by 3, read-out: brain Actual Conc.): 51.6 ng/g
- concentration at 0.083 h (Sprague Dawley, rat, brain, iv, 3 mg/kg, Rat (Sprague Dawley) iv 3 mg/kg (IVB), brain, 0.083 h, Mean, read-out: brain Actual Conc.): 43.5 ng/g
- concentration at 0.25 h (Sprague Dawley, rat, brain, iv, 3 mg/kg, Rat (Sprague Dawley) iv 3 mg/kg (IVB), brain, 0.25 h, Group 1, Group 2, detected value multiplied by 3, read-out: brain Actual Conc.): 39.6 ng/g
- concentration at 0.25 h (Sprague Dawley, rat, brain, iv, 3 mg/kg, Rat (Sprague Dawley) iv 3 mg/kg (IVB), brain, 0.25 h, Mean, read-out: brain Actual Conc.): 39.2 ng/g
- concentration at 1 h (Sprague Dawley, rat, brain, iv, 3 mg/kg, Rat (Sprague Dawley) iv 3 mg/kg (IVB), brain, 1 h, Group 1, Group 2, detected value multiplied by 3, read-out: brain Actual Conc.): 39.9 ng/g
- concentration at 1 h (Sprague Dawley, rat, brain, iv, 3 mg/kg, Rat (Sprague Dawley) iv 3 mg/kg (IVB), brain, 1 h, Mean, read-out: brain Actual Conc.): 46.2 ng/g
- AUC(0-inf) (Sprague Dawley, rat, plasma, iv, 3 mg/kg, Sprague Dawley rat, iv 3 mg/kg, Rat 1, read-out: AUCInf Rat 1): 1240 ng·h/mL
- AUC(0-t) (Sprague Dawley, rat, plasma, iv, 3 mg/kg, Sprague Dawley rat, iv 3 mg/kg, Rat 1, read-out: AUClast Rat 1): 1240 ng·h/mL
- C0 (Sprague Dawley, rat, plasma, iv, 3 mg/kg, Sprague Dawley rat, iv 3 mg/kg, Rat 1, read-out: C0 Rat 1): 873 ng/mL
- half-life (Sprague Dawley, rat, plasma, iv, 3 mg/kg, Sprague Dawley rat, iv 3 mg/kg, Rat 1, read-out: T1/2 Rat 1 (converted)): 2.66 h
- AUC(0-inf) (Sprague Dawley, rat, plasma, iv, 3 mg/kg, Sprague Dawley rat, iv 3 mg/kg, Rat 2, read-out: AUCInf Rat 2): 1210 ng·h/mL
- AUC(0-t) (Sprague Dawley, rat, plasma, iv, 3 mg/kg, Sprague Dawley rat, iv 3 mg/kg, Rat 2, read-out: AUClast Rat 2): 1210 ng·h/mL
- C0 (Sprague Dawley, rat, plasma, iv, 3 mg/kg, Sprague Dawley rat, iv 3 mg/kg, Rat 2, read-out: C0 Rat 2): 814 ng/mL
- half-life (Sprague Dawley, rat, plasma, iv, 3 mg/kg, Sprague Dawley rat, iv 3 mg/kg, Rat 2, read-out: T1/2 Rat 2 (converted)): 2.83 h
- AUC(0-inf) (Sprague Dawley, rat, plasma, iv, 3 mg/kg, Sprague Dawley rat, iv 3 mg/kg, Rat 3, read-out: AUCInf Rat 3): 1090 ng·h/mL
- AUC(0-t) (Sprague Dawley, rat, plasma, iv, 3 mg/kg, Sprague Dawley rat, iv 3 mg/kg, Rat 3, read-out: AUClast Rat 3): 1090 ng·h/mL
- C0 (Sprague Dawley, rat, plasma, iv, 3 mg/kg, Sprague Dawley rat, iv 3 mg/kg, Rat 3, read-out: C0 Rat 3): 855 ng/mL
- half-life (Sprague Dawley, rat, plasma, iv, 3 mg/kg, Sprague Dawley rat, iv 3 mg/kg, Rat 3, read-out: T1/2 Rat 3 (converted)): 2.88 h
- AUC(0-inf) (Sprague Dawley, rat, plasma, iv, 3 mg/kg, Sprague Dawley rat, iv 3 mg/kg, mean of 3 rats, read-out: AUCInf Mean): 1180 ng·h/mL
- AUC(0-t) (Sprague Dawley, rat, plasma, iv, 3 mg/kg, Sprague Dawley rat, iv 3 mg/kg, mean of 3 rats, read-out: AUClast Mean): 1180 ng·h/mL
- C0 (Sprague Dawley, rat, plasma, iv, 3 mg/kg, Sprague Dawley rat, iv 3 mg/kg, mean of 3 rats, read-out: C0 Mean): 848 ng/mL
- half-life (Sprague Dawley, rat, plasma, iv, 3 mg/kg, Sprague Dawley rat, iv 3 mg/kg, mean of 3 rats, read-out: T1/2 Mean (converted)): 2.79 h
- AUC(0-inf) (Sprague Dawley, rat, plasma, po, 10 mg/kg, Rat (Sprague Dawley) po 10 mg/kg, Mean, read-out: AUCInf): 26.6 ng·h/mL
Structure (SMILES): O=C1CCC(N2C(=O)c3cccc(NCCOCCOCCNCc4ccc(-n5cc(NC(=O)c6coc(-c7ccnc(NCC8CC8)c7)n6)c(C(F)F)n5)cc4)c3C2=O)C(=O)N1 (stereo not drawn) [I-210, 2-[2-(Cyclopropylmethylamino)-4-pyridyl]-N-[3-(difluoromethyl)-1-[4-[[2-[2-[2-[[2-(2,6-dioxo-3-piperidyl)-1,3-dioxoisoindolin-4-yl]amino]ethoxy]ethoxy]ethylamino]methyl]phenyl]pyrazol-4-yl]oxazole-4-carboxamide]
- AUClast [2]: 17.7 ng·h/mL and 21.1 ng·h/mL and 6.66 ng·h/mL
